# Source: US20150086643A1, “TRADITIONAL CHINESE MEDICINE COMPOUND ANTITUMOR NANO PREPARATION AND USE THEREOF” (priority 2013, published 2015)
# Test system: H22 hepatoma carcinoma cells
# Test: In-vivo tumor inhibitory effect in H22 tumor-bearing Kunming mice
# Description: The tumor-bearing Kunming mice are used to evaluate the in-vivo tumor inhibitory effect of the compound multiple-unit capsule of the present invention. Inoculating H22 hepatoma carcinoma cells (provided by Shanghai Institute of Materia Medica of Chinese Academy of Sciences) to enterocoelia of mice, taking out the H22 cells cultivated in the enterocoelia of mice after 6-8 days and preparing into homogeneous suspension with PBS; subcutaneously inoculating 0.2 mL of H22 cells (2×10^6/mL) to right axilla of each mouse. After inoculation, the mice are divided into 5 groups, 10 mice for each group: (1) Normal saline group (blank control), (2) 5-FU group (positive control), (3) 0.5% CMC-Na group, (4) Niu Huang Xing Xiao pill group and (5) Compound multiple-unit capsule group. The 5-FU group is subjected to administration through intraperitoneal injection, once every two days, with the dosage being 25 mg/kg. And the other four groups are subjected to intragastric administration. Preparation method of the Niu Huang Xing Xiao pill group and the compound multiple-unit capsule group is as follows: taking prescription amount of each component, adding the components into 0.5% CMC-Na water solution to prepare suspension. The concentration of drug for administration according to the original prescription for the groups (4) and (5) is 450 mg/kg (with the concentration of realgar being about 75 mg/kg). The tumor inhibiting rate is calculated with the following formula:
# Tumor inhibiting rate=(C−T)/C×100%; C and T being average weight of the tumors on mice of the blank control and the treatment group.
smiles,measurement,setting,value
"O=c1[nH]cc(F)c(=O)[nH]1 [Example 5-FU, 5-FU]",Weight of mice (g) After,"after treatment, n=10",24.20 ± 1.75 g
same,Weight of mice (g) Before,"before treatment, n=10",20.20 ± 0.92 g
same,Weight of tumor,"n=10, 5-FU 25 mg/kg i.p. once every two days, pill and capsule 450 mg/kg intragastric",0.50 ± 0.13 g
same,Tumor inhibiting rate (%),"n=10, (C−T)/C×100% vs blank control, 5-FU 25 mg/kg i.p., pill and capsule 450 mg/kg intragastric",67.95%
